Patent publication US4632922A, “Oxomorpholinyl dimer and rescue of anthracycline and mitomycin C damage” (The United States of America as represented by the …, priority 1985, dated 1986)

Legend:
[1] = Kinetics of reaction of DHM3 with daunorubicin in methanol solvent
Protocol: Oxomorpholinyl dimer DHM3 (5.8 mg) was dissolved in 100 ml of oxygen-free dichloromethane by stirring under nitrogen for 1 h. A portion of the solution (1.0 ml, 1.8×10^-4 mmol) of DHM3 was transferred via syringe to the spectrophotometric compartment of a two-compartment Pyrex cell with attachment for connection to a vacuum line with an Ultra Torr Union. The solvent was then evaporated with a stream of nitrogen. Daunorubicin hydrochloride (8.83 mg) was dissolved in 100 ml of a methanolic solution of 18.9 mg of tris(hydroxymethyl)aminomethane (Tris) and 24.7 mg of Tris hydrochloride. A portion of this solution (2.5 ml, 3.9×10^-4 mmol of 6) was introduced via syringe into the second compartment of the cell. The methanol solution was freeze (liquid nitrogen)-pump (2×10^-6 Torr)-thaw degassed through four cycles, sealed, and placed in a thermostatted cell holder at 25.1±0.1° C. for about 15 min. prior to mixing the solution with DHM3. After mixing, the average absorbance at 618 and 620 nm was recorded versus time. A non-linear least-squares treatment of the data as mentioned below gave a first order rate constant for bond homolysis of DHM3 equal to 1.8×10^-3 sec^-1.
The oxomorpholinyl dimer DHM3 causes reductive elimination of the sugar moiety, daunosamine, of daunorubicin (6) in much the same way as the structurally related bi(3,5,5-trimethyl-2-oxomorpholin-3-yl) (9). (See Schematic FIG. 2). […] The kinetics were established by regressional, non-linear least squares fitting of the absorbance versus time data to equation 1,
-k1))(e^-k.sbsp.1^t -e^-k.sbsp.2^t)
where At is the absorbance of 7 at time t, ε7 is the extinction coefficient of 7 at 618-620 nm, [DHM3]o is the concentration of DHM-3 at time zero, k1 is the rate constant for bond homolysis of DHM3 and k2 is the rate constant for tautomerization of 7 to 8. The value obtained for k1, 1.8×10^-3 sec^-1, was approximately half that obtained for bond homolysis of 9. […]

swine skin = assay: Intradermal DHM3 alone (control injections), tolerance and histology in swine; format: in vivo, miniature white swine
Protocol: In order to produce anthracycline induced tissue damage, clinical grade doxorubicin (DOX) hydrochloride was obtained as a representative anthracycline chemical from the Drug Synthesis Branch, Developmental Therapeutics Program, National Cancer Institute. Each vial contained 10 mg DOX hydrochloride and 50 mg lactose which was reconstituted with 5.0 ml sterile 0.9% NaCl solution to give a final drug concentration of 2.0 mg/ml. DHM3 solution was prepared by dissolving 10 mg in ice-cold water which had been purged with N2 gas for 5 minutes. Dissolution was facilitated by brief sonication to give a final concentration of 10 mg/ml. The solution was kept cold (≈4° C.) and protected from air and light.
Female weanling miniature white swine weighing approximately 12 kg were obtained from the Veterinary Resources Branch, National Institutes of Health. The development of this strain of swine has been described previously (Sachs, et al., Transplantation 22:559-567, 1976). Each animal was housed in a 6×4 ft metabolic cage and was fed standard NIH show chow, 1.5 lbs twice daily.
DOX HCl (2.0 mg/ml) was administered intradermally (i.d.) with a 25 gauge needle inserted approximately 4 to 5 mm into the skin. Following the injection of 0.5, 0.75 or 1.0 ml (1.0, 1.5, or 2.0 mg, respectively) DOX solution, the syringe was removed from the hub leaving the needle in place. After the indicated time interval, 1.0 ml (10 mg) DHM3 was injected through the same needle and the needle was then removed. Control sites received 1.0 ml sterile water instead of DHM3. The injection sites were along the mid-lateral aspect of each side of the swine and were 4-5 cm apart (6-8 injection sites per side). One animal was used for a dose experiment where DOX, 0.5 ml/site was injected along one side and 1.0 ml/site was injected along the contralateral side. Fifteen minutes later, DHM3 or water was injected into alternating sites as described above. A second animal received DOX, 0.75 ml/site along both sides. […]

CC1(CO)COC(=O)C(C)(C2(C)NC(C)(CO)COC2=O)N1 (stereo not drawn) [DHM3, bi(3,5-dimethyl-5-hydroxymethyl-2-oxomorpholin-3-yl)]
reaction product with daunorubicin ([1]; 1:2 molar ratio, oxygen degassed methanol, 25° C.): gives 7-deoxydaunorubicinone 8 as the only reaction product
k1 relative to that obtained for bond homolysis of 9 ([1]; methanol, 25° C.): approximately half
first order rate constant for bond homolysis of DHM3 (k1) ([1]; methanol, 25.1±0.1° C., with daunorubicin): 0.0018 s⁻¹
tissue injury (histology) (swine skin): did not cause any tissue injury except for mild upper dermis congestion
tolerance of control i.d. injections (swine skin): well tolerated
ulcer formation (swine skin): no ulcer formation occurred
